The values that follow come from patent US20230405151A1, “USE OF IRAK4 MODULATORS FOR GENE THERAPY” (Genzyme Corporation, priority 2022, published 2023).

In one assay the target is T1, IRAK4 protein (Mus musculus, UniProt Q8R4K2).
T1 construct: from tissue; host or cells: PBMCs from blood of C57BL/6J mice
T1 sequence (Q8R4K2 1-459): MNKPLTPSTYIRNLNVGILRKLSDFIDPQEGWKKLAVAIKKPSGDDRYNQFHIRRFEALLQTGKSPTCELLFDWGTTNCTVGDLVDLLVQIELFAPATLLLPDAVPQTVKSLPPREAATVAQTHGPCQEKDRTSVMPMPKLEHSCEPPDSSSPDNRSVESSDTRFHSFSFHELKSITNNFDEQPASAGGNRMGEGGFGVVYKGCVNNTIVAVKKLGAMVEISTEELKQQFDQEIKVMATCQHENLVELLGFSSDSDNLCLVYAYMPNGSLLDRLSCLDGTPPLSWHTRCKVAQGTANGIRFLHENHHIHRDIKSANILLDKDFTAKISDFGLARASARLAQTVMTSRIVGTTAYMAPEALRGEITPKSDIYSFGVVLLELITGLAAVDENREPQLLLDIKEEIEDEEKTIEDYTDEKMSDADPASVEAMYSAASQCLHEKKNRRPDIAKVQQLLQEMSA
The assay is described as follows: In vivo mouse AAV model: IRAK4 expression in PBMC immune cell types by flow cytometry. Particulars: chow 100 mg/kg from 15 days prior to AAV; day 14; N=6. The method, then:
The same experiment design was followed with n=6 mice in each group PBS group, AAV group and AAV+IRAK4 degrader PROTAC IRAK4 degrader-1 Cat. No.: HY-129966 (MedChemExpress) that was mixed with chow at 100 mg/kg and fed to mice 15 days prior to AAV injection. […] AAV capsid used in the study had LacZ transgene. All animal experiments were conducted in accordance with the Institutional Animal Care and Use Committees at Sanofi, Framingham. Submandibular bleeds were performed weekly, and necropsy was performed three weeks post AAV injection.
PBMC isolation and surface staining. 120 ul blood was collected in K2EDTA coated tubes. The blood was mixed with DBPS at 1:1 ration and pipetted into a separate tube containing Ficoll (GE17-5442-02) to ensure no mixing of the blood and Ficoll phases. The mixture was centrifuged at 2000 RPM for 25 minutes at room temperature (9 acceleration and no braking). The buffy coat containing the peripheral blood mononuclear cells (PBMCs) was collected, transferred to a new tube, and centrifuged for five minutes at 400 RCF. PBMCs were washed three times with phosphate buffered saline (PBS) containing 1% fetal bovine serum (FBS) or fetal calf serum (FCS) and counted. The PBMC cells thus obtained were stained with different antibodies to quantify percentage of different immune cell subsets in peripheral blood.
On day 14 mice were bled and PBMCs were harvested. […]

Assay [1] deals with phosphorylation of IRAK4 kinase target protein NFkB. The experiment in a line: AlphaLISA SureFire Ultra p-NFκB (Ser536) assay after LPS. The format is cell-based, human. Particulars: doses 16 nM, 80 nM, 400 nM and 2000 nM; LPS 300 ng/ml. The method, then: IRAK4 targeting drugs and AAV Treatments. Dendritic cells were plated in 96 well plates with 200,000 cells per well. Each treatment was performed in triplicates. Cells were treated with zimlovisertib IRAK4 inhibitor (Synonyms: PF-06650833) Cat. No.: HY-19836 (MedChemExpress) and PROTAC IRAK4 degrader-1 Cat. No.: HY-129966 (MedChemExpress) at 16 nm, 80 nm, 400 nm and 2000 nm for 18 hrs at 37° C., 5% CO2 in an incubator. After pre-treatment of 18 hrs with the drugs, AAV vectors at 1e5 MOI were used. The cells were incubated at 37° C., 5% CO2 in an incubator for 24 hours. After 24 hours, plates were centrifuged and media supernatant was collected. The clarified media was analyzed by Meso Scale Discovery MSD (world wide web mesoscale.com/products/v-plex-proinflammatory-panel-1-human-kit-k15049d/) performed by DC3 therapeutics https://www.dc3therapeutics.com/services. The experiment outline of PBMC isolation, monocyte purification and dendritic cell differentiation is illustrated in FIG. 1. […]
AlphaLISA assay. […] Finally, SA-donor beads are added and 30 min later plates are read using EnVision-Alpha Reader (615 nm) https://resources.perkinelmer.com/lab-solutions/resources/docs/MAN_AlphaLISA_IRAK4_AL3117.pdf?_gl=1*7jzf5d*_ga*MzQ4MTQ1NzA3LjE2NDY2NzY5MjI.*_ga_W34ZJ1Z1Q1*MTY3NzE5MjAyOS4zLjEuMTY3NzE5MjA2Mi4yNy4wLjA.&_ga=2.178521252.1409175695.1677192029-348145707.1646676922. […]

For the molecule `O=C1CCC(N2C(=O)c3cccc(NCc4cn(CCCNC(=O)c5ccc(-n6cc(NC(=O)c7coc(-c8ccnc(NCC9CC9)c8)n7)c(C(F)(F)F)n6)cc5)cn4)c3C2=O)C(=O)N1` (centres unmarked) [PROTAC IRAK4 degrader-1], the “IRAK4 protein expression in all immune cell types evaluated in PBMCs (PBMCs, T cells, B cells, monocytes)” value at IRAK4 protein is given as “reduced significantly”.

Regarding `CC[C@@H]1[C@H](F)C(=O)N[C@@H]1COc1nccc2cc(C(N)=O)c(OC)cc12` [zimlovisertib, 1-[[(2S,3S,4S)-3-Ethyl-4-fluoro-5-oxo-2-pyrrolidinyl]methoxy]-7-methoxy-6-isoquinolinecarboxamide], the “Phosphorylation of NFkB induced by LPS” value in assay [1] is “blocks phosphorylation of NFkB at 400 nM and 2000 nM”.
